Measured values reported in ChEMBL document CHEMBL5370655.

How the values were obtained:
[1] = target: T1, Epidermal growth factor receptor (Homo sapiens, UniProt P00533, C797S/L858R/T790M)
[2] = test system: A-431; assay: Antiproliferative activity against human A-431 cells assessed as inhibition of cell growth measured after 72 hrs by CCK8 assay; type: functional, cell-based; conditions: A-431, 72 h
[3] = Induction of cell cycle arrest in human H1975-TM cells assessed as accumulation at S phase at 500 nM measured after 24 hrs by RNase A/propidium iodide staining based flow cytometric analysis (reference value: 18.1 %); type: functional
[4] = test system: PC-9; assay: Antiproliferative activity against human PC-9 cells assessed as inhibition of cell growth measured after 72 hrs by CCK8 assay; type: functional, cell-based; conditions: PC-9, 72 h
[5] = Induction of cell cycle arrest in human H1975-TM cells assessed as accumulation at G2/M phase at 500 nM measured after 24 hrs by RNase A/propidium iodide staining based flow cytometric analysis (reference value: 17.6 %); type: functional
[6] = Induction of apoptosis in human H1975-TM cells assessed as apoptotic cells at 500 nM measured after 24 by Annexin V-FITC and propidium iodide staining based flow cytometric analysis (reference value: 7.08 %); type: functional; conditions: time 24 hrs
[7] = Antitumor activity against human H1975-TM cells xenografted in BALB/c mouse assessed as tumor growth inhibition at 25 mg/kg, po measured after 25 days; type: functional; conditions: time 25 day
[8] = test system: PC-9; type: functional, cell-based; conditions: Homo sapiens, PC-9, 72 h
[9] = test system: NCI-H1975; assay: Antiproliferative activity against human NCI-H1975 cells assessed as inhibition of cell growth measured after 72 hrs by CCK8 assay; type: functional, cell-based; conditions: NCI-H1975, 72 h
[10] = Induction of cell cycle arrest in human H1975-TM cells assessed as accumulation at G0/G1 phase at 500 nM measured after 24 hrs by RNase A/propidium iodide staining based flow cytometric analysis (reference value: 64.3 %); type: functional
[11] = target: Epidermal growth factor receptor (Homo sapiens, UniProt P00533, L858R/T790M); assay: Inhibition of EGFR L858R/T790M double mutant (unknown origin) using polyE4Y1 as substrate incubated for 5 mins with compound followed by substrate addition measured after 60 mins in presence of ATP by ADP-Glo reagent based assay
[12] = target: T1, Epidermal growth factor receptor; remark: listed apart in the source
[13] = target: Epidermal growth factor receptor (Homo sapiens, UniProt P00533, L858R)
Sequence of Epidermal growth factor receptor (Homo sapiens, UniProt P00533, L858R) (P00533 25-1210 L858R limits assumed): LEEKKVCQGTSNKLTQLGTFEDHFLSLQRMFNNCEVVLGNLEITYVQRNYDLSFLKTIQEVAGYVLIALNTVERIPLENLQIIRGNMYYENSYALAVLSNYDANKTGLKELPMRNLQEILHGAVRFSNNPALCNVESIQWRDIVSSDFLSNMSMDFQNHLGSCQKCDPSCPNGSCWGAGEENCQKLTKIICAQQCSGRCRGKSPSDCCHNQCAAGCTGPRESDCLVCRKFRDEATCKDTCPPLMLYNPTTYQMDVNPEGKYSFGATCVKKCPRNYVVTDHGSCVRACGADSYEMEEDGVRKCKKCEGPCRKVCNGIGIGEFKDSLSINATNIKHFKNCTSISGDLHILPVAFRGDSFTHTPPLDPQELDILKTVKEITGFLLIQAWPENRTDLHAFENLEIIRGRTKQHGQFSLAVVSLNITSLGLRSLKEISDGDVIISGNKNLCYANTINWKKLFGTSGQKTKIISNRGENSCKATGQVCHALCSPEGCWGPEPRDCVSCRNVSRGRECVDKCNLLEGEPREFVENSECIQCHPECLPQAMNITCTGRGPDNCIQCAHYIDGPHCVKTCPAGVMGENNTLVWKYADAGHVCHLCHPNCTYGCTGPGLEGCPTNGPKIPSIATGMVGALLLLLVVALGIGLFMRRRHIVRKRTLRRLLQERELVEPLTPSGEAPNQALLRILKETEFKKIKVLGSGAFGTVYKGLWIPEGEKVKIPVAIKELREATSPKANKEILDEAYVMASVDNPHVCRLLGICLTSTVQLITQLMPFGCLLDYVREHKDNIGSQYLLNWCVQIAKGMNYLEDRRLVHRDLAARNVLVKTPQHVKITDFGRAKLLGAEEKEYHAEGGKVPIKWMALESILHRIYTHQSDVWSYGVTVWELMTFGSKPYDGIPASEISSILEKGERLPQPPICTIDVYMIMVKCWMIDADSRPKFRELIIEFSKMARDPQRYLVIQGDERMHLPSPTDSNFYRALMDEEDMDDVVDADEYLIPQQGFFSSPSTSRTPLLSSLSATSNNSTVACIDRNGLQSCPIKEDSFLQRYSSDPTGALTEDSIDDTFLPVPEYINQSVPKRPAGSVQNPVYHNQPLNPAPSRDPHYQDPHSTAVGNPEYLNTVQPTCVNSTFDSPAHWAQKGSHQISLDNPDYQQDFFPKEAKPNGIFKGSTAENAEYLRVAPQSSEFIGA

[14] = target: Epidermal growth factor receptor (Homo sapiens, UniProt P00533)
Sequence of Epidermal growth factor receptor (Homo sapiens, UniProt P00533) (P00533 whole entry): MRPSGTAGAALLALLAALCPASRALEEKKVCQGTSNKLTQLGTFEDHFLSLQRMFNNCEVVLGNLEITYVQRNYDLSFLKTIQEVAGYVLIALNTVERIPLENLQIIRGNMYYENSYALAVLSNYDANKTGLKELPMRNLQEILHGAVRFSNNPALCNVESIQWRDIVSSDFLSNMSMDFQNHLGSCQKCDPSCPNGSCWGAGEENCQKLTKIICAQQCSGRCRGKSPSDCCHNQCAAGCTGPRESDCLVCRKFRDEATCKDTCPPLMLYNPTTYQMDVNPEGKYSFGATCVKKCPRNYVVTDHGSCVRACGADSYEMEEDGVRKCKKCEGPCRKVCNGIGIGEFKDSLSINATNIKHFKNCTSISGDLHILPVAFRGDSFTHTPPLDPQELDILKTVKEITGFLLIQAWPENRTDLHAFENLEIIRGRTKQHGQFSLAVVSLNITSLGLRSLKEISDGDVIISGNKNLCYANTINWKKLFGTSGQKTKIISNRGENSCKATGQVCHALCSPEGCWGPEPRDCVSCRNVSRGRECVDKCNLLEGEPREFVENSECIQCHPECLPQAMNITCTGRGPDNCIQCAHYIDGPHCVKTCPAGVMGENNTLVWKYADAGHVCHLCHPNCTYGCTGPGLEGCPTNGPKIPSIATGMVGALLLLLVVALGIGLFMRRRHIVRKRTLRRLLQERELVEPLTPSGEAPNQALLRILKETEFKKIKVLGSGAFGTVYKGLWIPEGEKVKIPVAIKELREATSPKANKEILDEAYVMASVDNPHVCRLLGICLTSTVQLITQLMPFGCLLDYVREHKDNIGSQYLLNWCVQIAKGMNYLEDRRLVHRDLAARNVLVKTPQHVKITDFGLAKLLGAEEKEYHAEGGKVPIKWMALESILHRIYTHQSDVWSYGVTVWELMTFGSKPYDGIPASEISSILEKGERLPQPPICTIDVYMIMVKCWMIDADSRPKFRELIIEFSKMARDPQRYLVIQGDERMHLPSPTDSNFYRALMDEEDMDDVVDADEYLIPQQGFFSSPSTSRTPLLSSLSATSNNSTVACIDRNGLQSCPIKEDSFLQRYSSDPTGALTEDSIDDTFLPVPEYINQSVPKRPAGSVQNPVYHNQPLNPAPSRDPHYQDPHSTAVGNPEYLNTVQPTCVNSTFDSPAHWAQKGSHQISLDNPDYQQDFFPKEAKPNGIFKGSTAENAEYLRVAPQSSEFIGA
Description: Inhibition of wild-type EGFR (unknown origin) using polyE4Y1 as substrate incubated for 5 mins with compound followed by substrate addition measured after 60 mins in presence of ATP by ADP-Glo reagent based assay

[15] = target: Epidermal growth factor receptor (Homo sapiens, UniProt P00533, C797S/EX19DEL/T790M)
Sequence of Epidermal growth factor receptor (Homo sapiens, UniProt P00533, C797S/EX19DEL/T790M) (P00533 whole entry, looked up, stated change not applied): as the sequence (P00533 whole entry) above

T1 sequence (P00533 25-1210 T790M/C797S/L858R limits assumed): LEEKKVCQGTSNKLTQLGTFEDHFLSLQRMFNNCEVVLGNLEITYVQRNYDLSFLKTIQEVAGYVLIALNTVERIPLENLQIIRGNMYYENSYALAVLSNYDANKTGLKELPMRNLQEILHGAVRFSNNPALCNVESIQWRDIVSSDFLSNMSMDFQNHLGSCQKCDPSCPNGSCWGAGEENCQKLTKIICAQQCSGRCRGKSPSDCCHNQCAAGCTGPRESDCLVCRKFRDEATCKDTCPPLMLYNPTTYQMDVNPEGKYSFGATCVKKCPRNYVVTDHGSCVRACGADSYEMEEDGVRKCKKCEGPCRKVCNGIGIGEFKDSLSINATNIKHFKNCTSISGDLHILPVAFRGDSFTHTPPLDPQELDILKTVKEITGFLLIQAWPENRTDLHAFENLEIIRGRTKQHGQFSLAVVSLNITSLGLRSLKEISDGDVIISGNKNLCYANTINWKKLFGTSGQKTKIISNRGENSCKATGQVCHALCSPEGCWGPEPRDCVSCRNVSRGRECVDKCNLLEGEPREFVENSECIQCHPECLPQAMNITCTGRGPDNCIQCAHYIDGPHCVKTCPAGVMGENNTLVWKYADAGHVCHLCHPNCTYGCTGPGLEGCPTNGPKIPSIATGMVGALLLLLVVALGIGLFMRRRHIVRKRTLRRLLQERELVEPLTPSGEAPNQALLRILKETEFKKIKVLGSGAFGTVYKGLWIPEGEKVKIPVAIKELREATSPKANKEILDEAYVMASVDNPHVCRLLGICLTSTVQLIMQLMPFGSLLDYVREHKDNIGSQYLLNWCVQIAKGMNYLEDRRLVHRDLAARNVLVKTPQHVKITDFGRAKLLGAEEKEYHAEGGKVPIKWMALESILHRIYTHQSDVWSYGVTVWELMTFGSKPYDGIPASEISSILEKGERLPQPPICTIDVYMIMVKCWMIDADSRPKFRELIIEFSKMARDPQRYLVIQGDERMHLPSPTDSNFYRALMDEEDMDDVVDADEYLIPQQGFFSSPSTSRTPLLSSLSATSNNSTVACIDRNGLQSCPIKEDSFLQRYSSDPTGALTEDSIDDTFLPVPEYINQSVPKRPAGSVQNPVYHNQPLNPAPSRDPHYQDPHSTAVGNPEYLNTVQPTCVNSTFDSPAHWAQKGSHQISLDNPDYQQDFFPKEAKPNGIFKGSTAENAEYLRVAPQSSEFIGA

`CCN(CC)CCn1ccc2cc(Nc3nccc(-c4sc(C5CCN(S(=O)(=O)CC)CC5)nc4-c4ccc(F)cc4)n3)ccc21` showed an IC50 [1] of 34 nM.

For `CCS(=O)(=O)Nc1nc(-c2ccc(F)cc2)c(-c2ccnc(Nc3ccc(C4CCN(C)CC4)cc3)n2)s1`, the IC50 [1] was 2.1 nM.

In the case of `CCS(=O)(=O)Nc1nc(-c2ccc(F)cc2)c(-c2ccnc(Nc3ccc(N4CCN(C)CC4)c(C)c3)n2)s1`, the IC50 [1] is reported as 3.6 nM.

For `CCS(=O)(=O)Nc1nc(-c2ccc(F)cc2)c(-c2ccnc(Nc3ccc(N4CCN(C)CC4)cc3)n2)s1`, the IC50 [1] was 1.8 nM.

`CN(C)CCn1ccc2cc(Nc3nccc(-n4ccnc4-c4ccc(Cl)cc4)n3)ccc21` showed an IC50 [1] of 86 nM.

`CC(C)c1nc(-c2ccc(F)cc2)c(-c2ccnc(Nc3ccc4c(ccn4CCN(C)C)c3)n2)s1` showed an IC50 [1] of 20 nM.

`CCS(=O)(=O)Nc1nc(-c2ccc(F)cc2)c(-c2ccnc(Nc3ccc(N4CCN(C)CC4)cc3OC)n2)s1` gave an IC50 [1] of 2.5 nM.

Work on `COc1ccc(-c2nccn2-c2ccnc(Nc3ccc4c(ccn4CCN(C)C)c3)n2)cc1` yielded an IC50 [1] of 289 nM.

In the case of `CCS(=O)(=O)Nc1nc(-c2ccc(F)cc2)c(-c2ccnc(Nc3cc(-c4cnn(C)c4)c(N4CCOCC4)cc3OC)n2)s1`, the IC50 [1] is reported as 70.1 nM.

`CCS(=O)(=O)N1CCC(c2nc(-c3ccc(F)cc3)c(-c3ccnc(Nc4ccc(N5CCN(C)CC5)cc4OC)n3)s2)CC1` showed an IC50 [1] of 71 nM.

Compound `CCS(=O)(=O)N1CCC(c2nc(-c3ccc(F)cc3)c(-c3ccnc(Nc4ccc(N5CCN(C(C)C)CC5)cc4)n3)s2)CC1` has an IC50 [1] of 49 nM.

`CNc1nc(-c2ccc(F)cc2)c(-c2ccnc(Nc3ccc4c(ccn4CCN(C)C)c3)n2)s1` showed an IC50 [1] of 19 nM.

For `CN1CCN(c2ccc(Nc3nccc(-n4ccnc4-c4ccc(F)cc4)n3)cc2)CC1`, the IC50 [1] was 63 nM.

With `Cc1nc(-c2ccc(F)cc2)c(-c2ccnc(Nc3ccc4c(ccn4CCN(C)C)c3)n2)s1` the IC50 [1] was 11 nM.

Compound `CN(C)CCn1ccc2cc(Nc3nccc(-c4sc(NS(C)(=O)=O)nc4-c4ccc(F)cc4)n3)ccc21` has an IC50 [1] of 2.5 nM.

`COc1cc(N2CCC(N3CCN(C)CC3)CC2)c(C)cc1Nc1nccc(-n2ccnc2-c2ccc(F)cc2)n1` gave an IC50 [1] of 28 nM.

With `COc1cc(N2CCC(N3CCN(C)CC3)CC2)ccc1Nc1ncc(Cl)c(Nc2ccccc2P(C)(C)=O)n1` [BRIGATINIB] the IC50 [2] was 510 nM, the Activity [3] was 10.5% and the IC50 [4] was 87 nM. The Activity [5] was 11.1%, the Activity [6] was 11.58% and the TGI [7] was 59.8%. For the same compound, the IC50 [8] was 390 nM, the IC50 [9] was 320 nM and the Activity [10] was 78.4%.

Work on `CN(C)CCn1ccc2cc(Nc3nccc(-c4sc(N)nc4-c4ccc(F)cc4)n3)ccc21` yielded an IC50 [1] of 2.1 nM.

For `CCS(=O)(=O)Nc1nc(-c2ccc(F)cc2)c(-c2ccnc(Nc3ccc4c(ccn4CCN(C)C)c3)n2)s1`, the IC50 [1] was 0.9 nM.

Work on `CN(C)CCn1ccc2cc(Nc3nccc(-c4sc(NS(=O)(=O)c5ccc(F)cc5)nc4-c4ccc(F)cc4)n3)ccc21` yielded an IC50 [1] of 15 nM.

Work on `CCS(=O)(=O)N1CCC(c2nc(-c3ccc(F)cc3)c(-c3ccnc(Nc4ccc(N5CCOCC5)cc4OC)n3)s2)CC1` yielded an IC50 [1] of 71 nM.

For `CCS(=O)(=O)Nc1nc(-c2ccc(F)cc2)c(-c2ccnc(Nc3ccc4c(ccn4CCN4CCOCC4)c3)n2)s1`, the IC50 [1] was 6.3 nM.

`CCS(=O)(=O)Nc1nc(-c2ccc(F)cc2)c(-c2ccnc(Nc3ccc(N4CCOCC4)cc3)n2)s1` gave an IC50 [1] of 37 nM.

`CCS(=O)(=O)N1CCC(c2nc(-c3ccc(F)cc3)c(-c3ccnc(Nc4ccc(N5CCOCC5)c(F)c4)n3)s2)CC1` showed an IC50 [1] of 77 nM.

For `CCS(=O)(=O)N1CCC(c2nc(-c3ccc(F)cc3)c(-c3ccnc(Nc4ccc(C5CCN(C)CC5)cc4)n3)s2)CC1`, the IC50 [1] was 15 nM.

In the case of `CN(C)CCn1ccc2cc(Nc3nccc(-n4ccnc4-c4ccc(C(F)(F)F)cc4)n3)ccc21`, the IC50 [1] is reported as over 1000 nM.

With `CCCCS(=O)(=O)Nc1nc(-c2ccc(F)cc2)c(-c2ccnc(Nc3ccc4c(ccn4CCN(C)C)c3)n2)s1` the IC50 [1] was 4.3 nM.

In the case of `CCN1CCN(c2ccc(Nc3nccc(-c4sc(NS(=O)(=O)CC)nc4-c4ccc(F)cc4)n3)cc2)CC1`, the IC50 [1] is reported as 2.2 nM.

In the case of `CCS(=O)(=O)Nc1nc(-c2ccc(F)cc2)c(-c2ccnc(Nc3ccc(N4CCOCC4)c(F)c3)n2)s1`, the IC50 [1] is reported as 4.1 nM.

`CN(C)CCn1ccc2cc(Nc3nccc(-n4ccc(-c5ccc(F)cc5)n4)n3)ccc21` showed an IC50 [1] of 409 nM.

With `CN(C)CCn1ccc2cc(Nc3nccc(-c4sc(N5CCOCC5)nc4-c4ccc(F)cc4)n3)ccc21` the IC50 [1] was 26 nM.

Compound `CC(C)S(=O)(=O)Nc1nc(-c2ccc(F)cc2)c(-c2ccnc(Nc3ccc4c(ccn4CCN(C)C)c3)n2)s1` has an IC50 [1] of 3.4 nM.

Compound `CN(C)CCn1ccc2cc(Nc3nccc(-n4ccnc4-c4cccc(F)c4)n3)ccc21` has an IC50 [1] of 90 nM.

`CCS(=O)(=O)N1CCC(c2nc(-c3ccc(F)cc3)c(-c3ccnc(Nc4ccc(N5CCOCC5)cc4)n3)s2)CC1` gave an IC50 [1] of 58 nM.

`C=CC(=O)Nc1cc(Nc2nccc(-c3cn(C)c4ccccc34)n2)c(OC)cc1N(C)CCN(C)C` [OSIMERTINIB] showed an IC50 [2] of […], an IC50 [4] of 5 nM and an IC50 [8] of 2200 nM. For the same compound, the IC50 [9] was […].

Work on `CCS(=O)(=O)N1CCC(c2nc(-c3ccc(F)cc3)c(-c3ccnc(Nc4ccc(N5CCN(C)CC5)cc4)n3)s2)CC1` yielded an IC50 [2] of 1200 nM, an IC50 [11] of 8 nM and an IC50 [12] of 166 nM. The IC50 [4] was 6 nM, the IC50 [13] was 2.4 nM and the IC50 [14] was 52 nM. For the same compound, the IC50 [15] was 30 nM, the IC50 [8] was 80 nM and the IC50 [1] was 18 nM. For the same compound, the IC50 [9] was 190 nM.

`CC(=O)Nc1nc(-c2ccc(F)cc2)c(-c2ccnc(Nc3ccc4c(ccn4CCN(C)C)c3)n2)s1` gave an IC50 [2] of 450 nM, an IC50 [11] of 4.9 nM and an IC50 [12] of 159 nM. It also gave an IC50 [4] of 20 nM, an IC50 [13] of 2.1 nM and an IC50 [14] of 66 nM. The IC50 [15] was 14 nM, the IC50 [8] was 8 nM and the IC50 [1] was 3.2 nM. The IC50 [9] was 340 nM.

Compound `CN(C)CCn1ccc2cc(Nc3nccc(-c4sc(NS(=O)(=O)C5CCCCC5)nc4-c4ccc(F)cc4)n3)ccc21` has an IC50 [1] of 20 nM.

`CCS(=O)(=O)N1CCC(c2nc(-c3ccc(F)cc3)c(-c3ccnc(Nc4ccc5c(ccn5CCN5CCOCC5)c4)n3)s2)CC1` gave an IC50 [1] of 71 nM.

In the case of `CCS(=O)(=O)Nc1nc(-c2ccc(F)cc2)c(-c2ccnc(Nc3ccc(N4CCN(C(C)C)CC4)cc3)n2)s1`, the IC50 [1] is reported as 3.7 nM.

Compound `COc1cc(N2CCN(C)CC2)ccc1Nc1nccc(-n2ccnc2-c2ccc(F)cc2)n1` has an IC50 [1] of 127 nM.

Work on `CCS(=O)(=O)N1CCC(c2nc(-c3ccc(F)cc3)c(-c3ccnc(Nc4ccc(N5CCN(C)CC5)c(C)c4)n3)s2)CC1` yielded an IC50 [2] of 610 nM, an IC50 [11] of 17 nM and an IC50 [12] of 289 nM. It also gave an IC50 [4] of 35 nM, an IC50 [13] of 5.8 nM and an IC50 [14] of 67 nM. For the same compound, the IC50 [15] was 70 nM, the IC50 [8] was 40 nM and the IC50 [1] was 36 nM. For the same compound, the IC50 [9] was 100 nM.

For `CN(C)CCn1ccc2cc(Nc3nccc(-n4ccnc4-c4ccc(F)cc4)n3)ccc21`, the IC50 [1] was 17 nM.

For `CCN1CCN(c2ccc(Nc3nccc(-c4sc(C5CCN(S(=O)(=O)CC)CC5)nc4-c4ccc(F)cc4)n3)cc2)CC1`, the IC50 [1] was 26 nM.
